For one test, the target named is T1, Caspase-1 (Homo sapiens, UniProt P29466).
T1 sequence (P29466 whole entry): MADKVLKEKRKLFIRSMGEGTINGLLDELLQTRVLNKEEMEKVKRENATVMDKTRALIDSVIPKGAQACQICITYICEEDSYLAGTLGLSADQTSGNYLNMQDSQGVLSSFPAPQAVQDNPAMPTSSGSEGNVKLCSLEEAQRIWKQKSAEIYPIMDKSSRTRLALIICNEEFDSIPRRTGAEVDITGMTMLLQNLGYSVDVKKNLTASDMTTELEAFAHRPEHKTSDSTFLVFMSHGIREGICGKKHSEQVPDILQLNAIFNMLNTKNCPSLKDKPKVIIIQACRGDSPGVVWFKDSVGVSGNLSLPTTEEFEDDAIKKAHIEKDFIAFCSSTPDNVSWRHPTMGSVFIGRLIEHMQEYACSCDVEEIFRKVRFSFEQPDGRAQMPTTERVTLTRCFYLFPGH
Description: Inhibition of human recombinant caspase 1.

For test [1], the target named is T2, Caspase-3 (Homo sapiens, UniProt P42574).
T2 sequence (P42574 whole entry): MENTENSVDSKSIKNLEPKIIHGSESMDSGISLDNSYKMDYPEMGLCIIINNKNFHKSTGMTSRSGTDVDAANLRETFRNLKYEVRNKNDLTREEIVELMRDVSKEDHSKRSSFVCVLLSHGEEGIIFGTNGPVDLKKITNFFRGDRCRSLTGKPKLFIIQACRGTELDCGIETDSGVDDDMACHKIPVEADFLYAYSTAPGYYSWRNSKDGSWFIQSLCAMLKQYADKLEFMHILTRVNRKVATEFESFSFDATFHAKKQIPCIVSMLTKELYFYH
Description: Inhibition of human recombinant caspase 3.

In a further test the target is T3, Caspase-7 (Homo sapiens, UniProt P55210).
T3 sequence (P55210 whole entry): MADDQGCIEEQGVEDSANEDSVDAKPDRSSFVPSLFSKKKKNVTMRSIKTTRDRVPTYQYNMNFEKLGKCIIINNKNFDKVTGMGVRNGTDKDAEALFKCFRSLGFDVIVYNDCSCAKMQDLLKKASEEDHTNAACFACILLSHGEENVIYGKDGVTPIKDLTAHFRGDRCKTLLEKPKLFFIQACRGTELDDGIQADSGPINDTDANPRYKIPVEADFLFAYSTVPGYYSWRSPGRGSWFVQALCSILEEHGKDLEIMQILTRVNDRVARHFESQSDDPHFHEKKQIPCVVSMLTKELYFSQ
The experiment in a line: Inhibition of human recombinant caspase 7.

The next test concerns the target Caspase-8 (Homo sapiens, UniProt Q14790). Description: Inhibition of human recombinant caspase 8.
Test [2] concerns the target T2, Caspase-3. Description: Inhibition of human recombinant caspase 3 in NT2 by whole cell assay.

Sequence of Caspase-8 (Q14790 217-374 limits assumed): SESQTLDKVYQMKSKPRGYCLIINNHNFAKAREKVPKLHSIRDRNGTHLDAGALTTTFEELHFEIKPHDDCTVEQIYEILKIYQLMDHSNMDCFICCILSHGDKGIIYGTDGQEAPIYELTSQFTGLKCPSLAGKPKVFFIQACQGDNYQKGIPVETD
Sequence of Caspase-8 (Q14790 385-479 limits assumed): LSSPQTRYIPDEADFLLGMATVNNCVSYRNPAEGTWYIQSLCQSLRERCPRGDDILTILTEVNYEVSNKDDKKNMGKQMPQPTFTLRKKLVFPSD

`CCCCCCN(C)CC(=O)[C@H](CC(=O)O)NC(=O)C(CC)n1cc(C(C)(C)C)nc(Nc2nnn[nH]2)c1=O` (stereo partly specified): the IC50 on Caspase-1 was 3.4 nM; on Caspase-3 [1] it was 6.6 nM; on Caspase-7, 64.7 nM; on Caspase-8, 163 nM; at Caspase-3 [2], 6070 nM.
Consider `CCC(C(=O)N[C@@H](CC(=O)O)C(=O)CCCc1ccccc1)n1cc(C(C)(C)C)nc(NC(CC(C)C)C(=O)O)c1=O` (stereo partly specified), for which the IC50 is 5490 nM on Caspase-1, 100 nM on Caspase-3 [1], 3490 nM on Caspase-7 and more than 10000 nM at Caspase-8.
In the same order, the values of `CCC(C(=O)N[C@@H](CC(=O)O)C(=O)CCCc1ccccc1)n1cc(C(C)(C)C)nc(Nc2ccc3c(c2)OCCO3)c1=O` (stereo partly specified) are 330 nM, 28 nM, 280 nM and 1000 nM.
With `CCC(C(=O)N[C@@H](CC(=O)O)C(=O)CCCc1ccccc1)n1cc(C(C)(C)C)nc(NCCc2cccs2)c1=O` (stereo partly specified), the IC50 on Caspase-1 is 2310 nM; at Caspase-3 [1], 50 nM; at Caspase-7, 920 nM; at Caspase-8, 300 nM.
Consider `CCC(C(=O)N[C@@H](CC(=O)O)C(=O)CCCc1ccccc1)n1cc(C(C)(C)C)nc(Nc2nnn[nH]2)c1=O` (stereo partly specified), for which the IC50 at Caspase-1 was found to be 9 nM; at Caspase-3 [1], 5 nM; at Caspase-7, 8 nM; at Caspase-8, 14 nM; on Caspase-3 [2] it was 19400 nM.
On to `CCC(C(=O)N[C@@H](CC(=O)O)C(=O)CCCc1ccccc1)n1cc(C(C)(C)C)nc(NCc2cc(OC)cc(OC)c2)c1=O` (stereo partly specified), for which the IC50 at Caspase-1 amounted to 320 nM; at Caspase-3 [1], 160 nM; on Caspase-7 it was 800 nM; on Caspase-8, 3050 nM.

The record behind these values is ChEMBL document CHEMBL1139112, “Solid-phase analogue synthesis of caspase-3 inhibitors via palladium-catalyzed amination of 3-bromopyrazinones” (Bioorg Med Chem Lett, 2007).
